Data as given in patent publication US6395762B1, “Phenyl amino squarate and thiadiazole dioxide beta-3 adrenergic receptor agonists” (American Home Products Corporation, priority 2000, dated 2002).
Counter-ions that a name gives are not always drawn.

Key:
human β3-AR = target: T1, human β3-AR (Homo sapiens, UniProt P13945); test: cAMP accumulation (SPA) in CHO cells transfected with human β3-AR; format: cell-based; conditions: CHO cells transfected with human β3-AR; for EC50: cAMP by SPA, 30 min at 37° C., 10^−9 M to 10^−5 M, read-out: EC50(β3); for IA(β3): maximal response of compound relative to maximal response of isoproterenol at 10^−5 M
T1 construct: Full-length β3-AR clones (402 amino acids) containing the last 6 amino acids of hβ3-AR; expressed in transfected cells; host or cells: CHO (Chinese hamster ovary) cells
T1 sequence (P13945 whole entry): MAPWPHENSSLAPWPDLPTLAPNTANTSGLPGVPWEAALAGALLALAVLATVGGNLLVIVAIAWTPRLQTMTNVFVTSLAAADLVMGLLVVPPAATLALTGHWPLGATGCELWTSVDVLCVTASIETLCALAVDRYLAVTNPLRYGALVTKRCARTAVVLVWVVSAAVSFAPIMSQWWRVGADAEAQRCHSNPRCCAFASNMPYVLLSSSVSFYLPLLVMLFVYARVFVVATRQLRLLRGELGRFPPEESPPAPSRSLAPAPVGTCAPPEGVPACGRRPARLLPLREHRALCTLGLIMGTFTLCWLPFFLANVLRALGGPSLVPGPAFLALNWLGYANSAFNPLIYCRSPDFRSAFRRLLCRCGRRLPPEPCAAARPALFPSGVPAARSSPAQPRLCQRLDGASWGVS
Experimental: The ability of the compounds of this invention to treat or inhibit disorders related to insulin resistance or hyperglycemia was confirmed with representative compounds of this invention in the following standard pharmacological test procedures, which measured the binding selectivity of the β1-, β2-, and β3-AR. Binding to the receptors was measured in Chinese Hamster ovary (CHO) cells that were transfected with β1-, β2-, and β3-AR's. The following briefly summarizes the procedures used and results obtained.
Cloning of Human β3-AR Genomic DNA: cDNA was constructed by ligating four polymerase chain reaction (PCR) products using the following primers: an ATG-Narl fragment, sense primer 5′-[…]3′ and anti-sense primer 5′[…]3′; a Narl-Accl fragment, 5′[…]3′ as sense and 5′[…]3′ as anti-sense primer; an Accli—Styl fragment, sense primer 5′[…]3′ and anti-sense primer 5′[…]3′ and a Styl-TAG fragment, with sense primer 5′ […]3′ and anti-sense primer 5′ […]3′ . The corresponding primer sequences are described in Mantzoros, C. S., et.al., Diabetes, 1996, 45, 909-914. The four fragments are ligated into a pUC 18 plasmid (Gibco-BRL) and sequenced. Full-length β3-AR clones (402 amino acids) containing the last 6 amino acids of hβ3-AR are prepared with the β3-βARpcDNA3 from ATTC.
Binding Procedure: Clones expressing receptor levels of 70 to 110 fmoles/mg protein were used in the test procedures. CHO cells were grown in 24-well tissue culture plates in Dulbecco's Modified Eagle Media with 10% fetal bovine serum, MEM non-essential amino acids, Penicillin—Streptomycin and Geneticin. On the day of test procedure, growth medium was replaced with preincubation media (Dulbecco's Modified Eagle Media) and incubated for 30 minutes at 37° C. Pre-incubation medium was replaced with 0.2 ml treatment medium containing DMEM media containing 250 μM IBMX (isobutyl-1-methylxantine) plus 1 mM ascorbic acid with test compound dissolved in DMSO. Test compounds were assayed over a concentration range of 10^−9 M to 10^−5 M for β3-AR transfected cells and 10^−8 to 10^−4 M for β1-AR and β2-AR transfected cells. Isoproterenol (10^−5 M) was used as an internal standard for comparison of activity. Cells were incubated at 37° C. on a rocker for 30 min with the β3-AR transfected cells and 15 min with β1-AR and β2-AR transfected cells. Incubation was stopped by the addition of 0.2N HCl and the acid was neutralized with 2.5N NaOH. The plates, containing the cells and neutralized media, were stored at −20° C. until ready to test for cAMP using the SPA test kit (Amersham).
Data Analysis and Results: Data collected from the SPA test procedure were analyzed as percent of the maximal isoproterenol response at 10^−5 M. Activity curves were plotted using the SAS statistical and graphics software.

CCCCCCCCNC1=NS(=O)(=O)N=C1Nc1ccc(CC(C)(C)NC[C@H](O)COc2ccc(O)cc2)cc1 [Compound 4]
EC50 (human β3-AR): 0.068 µM
IA(β3) (human β3-AR): 1.10

CCCCCCCCNC1=NS(=O)(=O)N=C1Nc1ccc(CC(C)(C)NC[C@H](O)COc2ccc(OCc3ccccc3)cc2)cc1 [4 (step F)]
EC50 (human β3-AR): 1.06 µM
IA(β3) (human β3-AR): 0.37

CC(C)(Cc1ccc(NC2=NS(=O)(=O)N=C2NCC(c2ccccc2)c2ccccc2)cc1)NC[C@H](O)COc1ccc(O)cc1 [Compound 29, 4-[(2S)-3-(2-{4-[4-(2,2-Diphenyl-ethylamino)-1,1-dioxo-1H-1(lambda(6))-[1,2,5]thiadiazol-3-ylamino]-phenyl}-1,1-dimethyl-ethylamino)-2-hydroxy-propoxy]l-phenol]
EC50 (human β3-AR): 0.014 µM
IA(β3) (human β3-AR): 0.89

CCCCCCCCNC1=NS(=O)(=O)N=C1Nc1ccc(CC(C)(C)NC[C@H](O)COc2ccc(O)cc2)cc1 (as salt: HCl) [Compound 4]
melting point: 229.5 to 231.3 °C

CC(Cc1ccc(NC2=NS(=O)(=O)N=C2NCC2(c3ccccc3)CCCC2)cc1)NC[C@H](O)COc1ccc(O)cc1 (stereo partly drawn) (as salt: HCl) [Compound 31, 4-{(2S)-3-[2-(4-{1,1-Dioxo-4-[(1-phenyl-cyclopentylmethyl)-amino]-1H-1(lambda(6))-[1,2,5]thiadiazol-3-ylamino}-phenyl)-1-methyl-ethylamino]-2-hydroxy-propoxy}-phenol]
melting point: 162 to 165 °C

CCOC(=O)CCCNC1=NS(=O)(=O)N=C1Nc1ccc(CC(C)NC[C@H](O)COc2ccc(O)cc2)cc1 (stereo partly drawn) [Compound 33, 4-{4-(4-{2-[(2S)-2-Hydroxy-3-(4-hydroxy-phenoxy)-propylamino]-propyl}-phenylamino)-1,1-dioxo-1H-1.lambda(6).-[1,2,5]thiadiazol-3-ylamino]-butyric acid ethyl ester]
EC50 (human β3-AR): 0.037 µM
IA(β3) (human β3-AR): 1.17

CCCCCCCCNC1=NS(=O)(=O)N=C1Nc1ccc(CC(C)NCC(O)c2cccc(Cl)c2)cc1 [Compound 3, (1R)-1-(3-Chloro-phenyl)-2-{1-methyl-2-[4-(octylamino-1,1-dioxo-1H-1-.lambda(6).-1,2,5]thiadiazol-3-ylamino)-phenyl]-ethylamino}-ethanol]
EC50 (human β3-AR): 0.038 µM
IA(β3) (human β3-AR): 0.86

CC(Cc1ccc(NC2=NS(=O)(=O)N=C2NCC2(c3ccccc3)CCCC2)cc1)NC[C@H](O)COc1ccc(O)cc1 (stereo partly drawn) [Compound 31, 4-{(2S)-3-[2-(4-{1,1-Dioxo-4-[(1-phenyl-cyclopentylmethyl)-amino]-1H-1(lambda(6))-[1,2,5]thiadiazol-3-ylamino}-phenyl)-1-methyl-ethylamino]-2-hydroxy-propoxy}-phenol]
EC50 (human β3-AR): 0.005 µM
IA(β3) (human β3-AR): 1.0

CN(C)c1ccc(C2(CNC3=NS(=O)(=O)N=C3Nc3ccc(CC(C)(C)NC[C@H](O)COc4ccc(OCc5ccccc5)cc4)cc3)CCCC2)cc1 [7 (step E), (2S)-1-(4-Benzyloxy-phenoxy)-3-{2-{4-(4-{[1-(4-dimethylamino-phenyl)-cyclopentylmethyl]-amino}-1,1-dioxo-1H-1(lambda(6))-[1,2,5]thiadiazol-3-ylamino)-phenyl]-1,1-dimethyl-ethylamino}-propan-2-ol]
EC50 (human β3-AR): 0.682 µM
IA(β3) (human β3-AR): 0.56

CN(C)c1ccc(C2(CNC3=NS(=O)(=O)N=C3Nc3ccc(CC(C)(C)NCC(O)c4ccc(O)c(NS(C)(=O)=O)c4)cc3)CCCC2)cc1 (centres unmarked) [Compound 34, N-[5-(2-{2-[4-(4-{[1-(4-dimethylamino-phenyl)-cyclopentylmethyl]-amino}-1,1-dioxo-1H-1.lambda(6).-[1,2,5]thiadiazol-3-ylamino)-phenyl]-1,1-dimethyl-ethylamino}-1-hydroxy-ethyl)-2-hydroxy-phenyl]-methanesulfonamide]
EC50 (human β3-AR): 0.0008 µM
IA(β3) (human β3-AR): 1.0

CN(C)c1ccc(C2(CNC3=NS(=O)(=O)N=C3Nc3ccc(CC(C)(C)NC[C@H](O)COc4ccc(O)cc4)cc3)CCCC2)cc1 [Compound 7, 4-{[(2S)-3-({2-[4-({4-[({1-[4-(dimethylamino)phenyl]cyclopentyl}methyl)amino]1,1-dioxido-1,25-thiadiazol-3-yl}amino)phenyl]-1 1-dimethylethyl}amino)-2-hydroxypropyl]oxy}phenol]
EC50 (human β3-AR): 0.055 µM
IA(β3) (human β3-AR): 0.74

CCOC(=O)CCCNC1=NS(=O)(=O)N=C1Nc1ccc(CC(C)NC[C@H](O)COc2ccc(OCc3ccccc3)cc2)cc1 (stereo partly drawn) [Compound 32, 4-[4-(4-{2-[(2S)-3-(4-benzyloxy-phenoxy)-2-hydroxy-propylamino]-propyl}-phenylamino)-1,1-Dioxo-1H-1(lambda(6))-[1,2,5]thiadiazol-3-ylamino]-butyric acid ethyl ester]
EC50 (human β3-AR): 0.09 µM
IA(β3) (human β3-AR): 0.62

CCCCCCCCCCNC1=NS(=O)(=O)N=C1Nc1ccc(CC(C)NC[C@H](O)COc2ccc(O)cc2)cc1 (stereo partly drawn) [Compound 25, 4-((2S)-3-{2-[4-(4-Decylamino-1,1-dioxo-1H-1(lambda(6))-[1,2,5]thiadiazol-3-ylamino)-phenyl]-1-methyl-ethylamino}-2-hydroxy-propoxy)-phenol]
EC50 (human β3-AR): 0.088 µM
IA(β3) (human β3-AR): 0.85

(2S)-1-(4-Benzyloxy-phenoxy)-3-{2-[4-(4-decylamino-1,1-dioxo-1H-1-. lambda(6).-[1,2,5]thiadiazol-3-ylamino)-phenyl]-1-methyl-ethylamino}-propan-2-ol [Compound 18]
IA(β3) (human β3-AR): 0.46

CCCCCCCCNC1=NS(=O)(=O)N=C1Nc1ccc(CC(C)NC[C@H](O)c2ccc(OCc3ccccc3)c(NS(C)(=O)=O)c2)cc1 (stereo partly drawn) [6 (step B), N-[2-Benzyloxy-5-((1R)-1-hydroxy-2-{1-methyl-2-[4-(4-octylamino-1,1-dioxo-1H-1(lambda(6))-[1,2,5]thiadiazol-3-ylamino)-phenyl]-ethylamino}-ethyl)-phenyl]-methanesulfonamide]
IA(β3) (human β3-AR): 0.32

CCCCCCCCNC1=NS(=O)(=O)N=C1Nc1ccc(CC(C)NC[C@H](O)COc2ccc(OCc3ccccc3)cc2)cc1 (stereo partly drawn) [Compound 11, (2S)-1-(4-Benzyloxy-phenoxy)-3-{1-methyl-2-[4-(4-octylamino-1,1-dioxo-1H-1.lambda(6).-[1,2,5]thiadiazol-3-ylamino)-phenyl]-ethylamino}-propan-2-ol]
IA(β3) (human β3-AR): 0.29

CCCCCCCCCCNC1=NS(=O)(=O)N=C1Nc1ccc(CC(C)NC[C@H](O)COc2ccccc2)cc1 (stereo partly drawn) [Compound 20, (2S)-1-{2-[4-(4-Decylamino-1,1-dioxo-1H-1(lambda(6))-[1,2,5]thiadiazol-3-ylamino)-phenyl]-1-methyl-ethylamino}-3-phenoxy-propan-2-ol]
IA(β3) (human β3-AR): 0.39

CCCCCCNC(=O)Nc1ccc(C2(CNC3=NS(=O)(=O)N=C3Nc3ccc(CC(C)(C)NC[C@@H](O)COc4ccc(OCc5ccccc5)cc4)cc3)CCCC2)cc1 [8 (step H), 1-[4-(1-{[4-(4-{2-[(2R)-3-(4-Benzyloxy-phenoxy)-2-hydroxy-propylamino]-2-methyl-propyl}-phenylamino)-1 1-dioxo-1H-1.lambda(6).-[1,2,5]thiadiazol-3-ylamino]-methyl}-cyclopentyl)-phenyl]-3-hexyl-urea]
EC50 (human β3-AR): 0.06 µM
IA(β3) (human β3-AR): 0.40

CCCCCCCCNC1=NS(=O)(=O)N=C1Nc1ccc(CCNC[C@H](O)COc2ccc(OCc3ccccc3)cc2)cc1 [5 (step E), (2S)-1-(4-Benzyloxy-phenoxy)-3-{2-[4-(4-octylamino-1,1-dioxo-1H-1.lambda(6).-[1,2,5]thiadiazol-3-ylamino)-phenyl]ethylamino}-propan-2-ol]
EC50 (human β3-AR): 1.39 µM
IA(β3) (human β3-AR): 0.15

CCCCCCCCCCNC1=NS(=O)(=O)N=C1Nc1ccc(CC(C)NC[C@H](O)COc2cccc3[nH]c4ccccc4c23)cc1 (stereo partly drawn) [Compound 19, (2S)-1-(9H-Carbozol-4-yloxy)-3-{2-[4-(4-decylamino-1,1-dioxo-1H-1-.lambda(6).-[1,2,5]thiadiazol-3-ylamino)-phenyl]-1-methyl-ethylamino}-propan-2-ol]
IA(β3) (human β3-AR): 0.36

CCCCCCCCNc1c(Nc2ccc(CC(C)NC[C@H](O)COc3ccc(O)cc3)cc2)c(=O)c1=O (stereo partly drawn) [Compound 14, 3-(4-{2-[(2S)-2-Hydroxy-3-(4-hydroxy-phenoxy)-propylamino]-propyl}-phenylamino)-4-octylamino-cyclobut-3-ene-1,2-dione]
EC50 (human β3-AR): 0.021 µM
IA(β3) (human β3-AR): 0.81
